Data set [1] has as its system AKR1B10 (ARL-1) secretion. The data set can be described thus: ARL-1 secretion into culture medium (sandwich ELISA and Western blot). The data set is classed as cell-based, human. As for the experimental part: Soluble proteins are secreted by either the classical or nonclassical pathway (Nickel et al., Eur J. Biochem. 270: 2109-2119, 2003). In the classical protein secretion pathway, a secretory protein is translocated by an N-terminal signal peptide into endoplasmic reticulum and Golgi complex concomitant with protein synthesis. Thus, this pathway is affected by inhibitors of protein synthesis and protein transport from ER to Golgi. […] HCT-8 cells (1.25×10^5) were cultured in 12-well plates overnight and the next day the cells were exposed to 15 μg/ml of protein synthesis inhibitor cycloheximide in fresh serum-free medium. Medium was collected at different time points for sandwich ELISA and Western blot analysis. […] Next, the effects of an ER-Golgi pathway inhibitor were examined. HCT-8 and NCI-460 cells (1.25×10^5) were cultured in 12-well plates overnight and then exposed to an ER-Golgi protein transport inhibitor brefeldin A at 0, 2, or 10 μg/ml in fresh serum-free medium for 6 hour. Medium was collected for sandwich ELISA and Western blot analysis. […] Statistic analysis was performed using Student's t test or Chi square tests, as appropriate, with INSTAT statistical analysis package (Graph Pad Software, CA), for statistical significance at p<0.05.
At 30 min before harvest, ATP (1 mM) was added and the medium was subjected to sandwich ELISA and Western blot analysis. In addition, HCT-8 cells (1.25×10^5) were seeded into 12-well plates and exposed to Ca^2+ ions (100 μM) or ionomycin at 1 or 2 μM in serum-free medium for 30 min and the medium was harvested for sandwich ELISA and Western blot analysis. […]
Proteins that are secreted via the lysosome-mediated pathway are often translocated into lysosomes by the ABC transporters (Hamon et al., Blood 90: 2911-2915, 1997). To understand the transmembrane mechanism of ARL-1, HCT-8 cells (1.25×10^5) were cultured in 12-well plates overnight and then exposed to ABC transporter inhibitor GLIB (glibenclamide) or DIDS (4,4′-diisothiocyanatostilbene-2,2′-disulfonic acid) (Sigma, Mo.) in serum-free medium for 2 hours. ATP (1 mM) was added 30 min before harvest. Medium and cells were collected for sandwich ELISA and Western blot analysis.

The test system of data set [2] is HCT-8 cells. The data set can be described thus: Mechanism of acrolein-induced cell death in HCT-8 cells with ARL-1 knockdown (flow cytometry, LDH efflux). The data set is classed as cell-based, human. Particulars: 25 μM. As for the experimental part: The mechanisms of cell death induced by reactive carbonyls were investigated by flow cytometry and lactate dehydrogenase leakage assay. For flow cytometry assay, cells (with ARL-1 knockdown) were incubated with acrolein (25 μM) for 24 hours. After medium was gently removed, cells were washed with cold PBS and trypsinized. Cells in PBS and trypsin digestion were pooled, washed with PBS twice at 1200 rpm for 10 min, and then subjected to immediate propidium iodide (PI) and annexin V-FITC staining for 10 minutes in the dark as set forth in Yuan et al. (2004, Oncogene 23: 5843-5852, 2004). FACScan analysis was performed using a FACScan cytometer (Becton Dickinson, Calif.).
For lactate dehydrogenase (LDH) efflux assays, cells were plated at 5×10^4 cells/well in 12-well plates and exposed to 25 μM of acrolein for 12 hours. Medium was collected and cells were lysed for 10 min in 0.5% (v/v) Triton X-100 in 0.1 M potassium phosphate buffer (pH 7.4). Supernatants were collected by centrifugation at 10,000×g for 5 min. LDH activity in medium and cell lysates was measured using LDH assay kit (Roche, Ind.). […] Absorbance at 490 nm was read in a microplate reader (Bio-Rad, CA), with 650 nm as a reference wavelength. LDH release was calculated as: LDH release (%)=[LDH in medium/(LDH in medium+LDH in cell lysate)]×100 (Koh and Choi, 1987, J Neurosci Methods 20: 83-90).

Where [3] appears, read: HCT-8 cells, serum-free medium 30 min, Ca2+ ions 100 μM, ionomycin 1 or 2 μM.
The mark [4] stands for this setting: HCT-8 cells, serum-free medium, ATP 1 mM 30 min before harvest, Mg2+ 2 mM and/or EDTA 1 mM for 2 hours.
Where [5] appears, read: HCT-8 cells, serum-free medium 2 hours, ATP 1 mM added 30 min before harvest.

The structures appear in SMILES notation. “Also recorded” adds a separate entry of the source.

As for `Nc1ncnc2c1ncn2[C@@H]1O[C@H](COP(=O)(O)OP(=O)(O)OP(=O)(O)O)[C@@H](O)[C@H]1O` [ATP], the results for the ARL-1 secretion entry in data set [1] (setting [3]) and in data set [1] (setting [4]) were “synergistic role in Ca^2+-mediated stimulation” and “significantly stimulated”, respectively.

On to `[Ca+2]` [Ca^2+ ions], for which the ARL-1 secretion result in data set [1] (setting [3]) was “significantly stimulated”. Regarding `O=S(=O)(O)c1cc(N=C=S)ccc1C=Cc1ccc(N=C=S)cc1S(=O)(=O)O` [DIDS, 4,4′-diisothiocyanatostilbene-2,2′-disulfonic acid], the ARL-1 secretion result in data set [1] (setting [5]) was “suppressed”.

Take `COc1ccc(Cl)cc1C(=O)NCCc1ccc(S(=O)(=O)NC(=O)NC2CCCCC2)cc1` [GLIB, glibenclamide]: the ARL-1 secretion entry in data set [1] (setting [5]) is “suppressed”. With `[Mg+2]` [Mg^2+], the ARL-1 secretion result in data set [1] (setting [4]) is “blocked”. On to `Cl.N` [NH4Cl], for which, in data set [1] (50 mM added simultaneously with the fresh serum-free medium), the ARL-1 secretion result was “increased”. The “ARL-1 in freshly fed serum-free medium compared with control” value in data set [1] (50 mM for 2 hours before switch to fresh serum-free medium) is given as “significant decrease”. In the case of `C=CC=O` [acrolein], in data set [2], the “features of induced cell death” value is “LDH efflux and annexin V staining, a characteristic of oncosis”.

In the case of `C[C@H]1CCC/C=C/[C@@H]2C[C@H](O)C[C@H]2[C@H](O)/C=C/C(=O)O1` [brefeldin A], in data set [1] (HCT-8 and NCI-460 cells, 0, 2, or 10 μg/ml, serum-free medium, 6 hour), the ARL-1 secretion result was “not affected; also recorded: did not significantly affect secretion”. On to `C[C@@H]1C[C@@H]([C@H](O)CC2CC(=O)NC(=O)C2)C(=O)[C@@H](C)C1` [cycloheximide], for which the ARL-1 secretion entry in data set [1] (HCT-8 cells, 15 μg/ml, serum-free medium, up to 8 hours) is listed as “not affected; also recorded: did not significantly affect secretion”. Turning to `C[C@H](CCC(=O)O)C[C@H](C)C[C@H](C)C(=O)/C=C(\O)[C@H](C)C[C@H](C)C/C=C/[C@@H](C)[C@@H](O)[C@@H](C)[C@@H](O)C[C@@H]1CC[C@@](C)([C@H]2CC[C@@](C)([C@@H](C)O)O2)O1` [ionomycin], the ARL-1 secretion entry in data set [1] (setting [3]) is given as “significantly stimulated”.

The record behind these values is patent publication US8685666B2, “ARL-1 specific antibodies and uses thereof” (The Board of Trustees of Southern Illinois University, priority 2007, dated 2014).
